Data reported in patent US20150030668A1 (priority 2012, published 2015).
Like-named read-outs stand apart in the source and are kept apart here.

Legend:
[1] = test system: Mycobacterium tuberculosis; settings: NAC at 10 millimolar
[2] = test system: aflatoxin B1-induced hepatic nodules or tumors; settings: mouse, in vivo; cited from earlier work
[3] = rat liver, CO-60, control (water) = 0%
Text: The tissue from the control animals (water) served as the 100% of the toxin remaining in the tissue. The animals receiving: • a.

Row | Structure (SMILES) | CFU/ml reduced to [1] | decreasing the incidence or size of hepatic nodules or tumors [2] | removal of the toxin [3] [%] | removal of the toxin ([3]; listed as Intravenous glutathione) [%]
1 | CC(=O)N[C@@H](CS)C(=O)O [NAC, N-acetyl cysteine] | 8,000 CFU/ml | – | – | –
2 | N[C@@H](CCC(=O)N[C@@H](CS)C(=O)NCC(=O)O)C(=O)O [Plain glutathione, glutathione (reduced)] | – | no benefit | 10 | 70
